Results reported in US10780090B2, “Heteroaryl compounds useful as inhibitors of SUMO activating enzyme” (Millennium Pharmaceuticals, Inc., priority 2014, dated 2020).
pIC50: −log10 of the molar value.

Target: recombinant human SAE enzyme (Homo sapiens (Human), UniProt Q9UBT2)
Assay: SAE HTRF enzyme assay
Assay type: biochemical
Details: for pIC50: class symbols A/B/C; for IC50: SAE inhibition, class symbols, legend in nM; for inhibition at 0.111 µM: read-out: Percent Inhibition
How it was run: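 0.11 nM SAE incubated with 0.5 μM ATP, 0.01 μM Ubc9-GST and 0.125 μM Sumo-Flag in HEPES pH 7.5, MgCl2, GSH, BSA, ±inhibitor, 105 min at 24° C. EDTA stop; Eu-cryptate anti-Flag/XL-APC anti-GST HTRF read after 2 h. Values given as single-concentration % inhibition or IC50.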

[1] = SAE inhibition at compound concentration 0.111 μM

Sequence of recombinant human SAE enzyme (Q9UBT2 whole entry): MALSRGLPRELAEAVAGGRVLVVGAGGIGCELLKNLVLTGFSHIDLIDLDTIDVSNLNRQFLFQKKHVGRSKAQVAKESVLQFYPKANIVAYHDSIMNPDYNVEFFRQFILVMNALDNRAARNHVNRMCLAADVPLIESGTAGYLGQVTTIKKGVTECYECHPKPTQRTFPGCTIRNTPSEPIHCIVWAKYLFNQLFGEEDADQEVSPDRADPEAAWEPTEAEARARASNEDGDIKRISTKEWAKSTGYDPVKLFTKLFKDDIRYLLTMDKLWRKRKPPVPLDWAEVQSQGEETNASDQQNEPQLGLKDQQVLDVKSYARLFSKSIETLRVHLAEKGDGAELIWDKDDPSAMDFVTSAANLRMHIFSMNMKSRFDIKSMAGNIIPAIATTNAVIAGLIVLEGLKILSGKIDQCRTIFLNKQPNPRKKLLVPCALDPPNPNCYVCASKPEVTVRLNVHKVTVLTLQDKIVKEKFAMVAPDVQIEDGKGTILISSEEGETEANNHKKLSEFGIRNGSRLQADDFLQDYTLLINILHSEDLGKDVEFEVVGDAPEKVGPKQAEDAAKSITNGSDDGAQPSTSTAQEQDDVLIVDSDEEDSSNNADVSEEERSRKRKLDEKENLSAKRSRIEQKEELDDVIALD
Sequence of recombinant human SAE enzyme (Q9UBE0 whole entry partner): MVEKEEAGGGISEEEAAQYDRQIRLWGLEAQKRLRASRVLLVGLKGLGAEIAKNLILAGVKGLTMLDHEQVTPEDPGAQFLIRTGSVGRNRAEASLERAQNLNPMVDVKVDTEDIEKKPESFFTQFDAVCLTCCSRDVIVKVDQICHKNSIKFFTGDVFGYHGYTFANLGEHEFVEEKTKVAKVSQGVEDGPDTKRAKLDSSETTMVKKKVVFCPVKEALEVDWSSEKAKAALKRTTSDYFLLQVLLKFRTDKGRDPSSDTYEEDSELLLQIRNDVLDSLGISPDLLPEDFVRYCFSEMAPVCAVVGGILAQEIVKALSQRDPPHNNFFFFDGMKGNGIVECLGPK

With `N[C@H](c1cccc(Br)c1)c1cc(C(=O)c2cncnc2N[C@@H]2C[C@H](COS(N)(=O)=O)[C@@H](O)[C@H]2O)sc1Cl` (single isomer, unassigned) [I-24a, [(1R,2R,3S,4R)-4-{[5-({4-[(R)-amino(3-bromophenyl)methyl]-5-chloro-2-thienyl}carbonyl)pyrimidin-4-yl]amino}-2,3-dihydroxycyclopentyl]methyl sulfamate or [(1R,2R,3S,4R)-4-{[5-({4-[(S)-amino(3-bromophenyl)methyl]-5-chloro-2-thienyl}carbonyl)pyrimidin-4-yl]amino}-2,3-dihydroxycyclopentyl]methyl sulfamate] the “Percent Inhibition” value (Concentration 0.111 μM) was 101 and the pIC50 was > 8.00.
In the case of `CN1Cc2ccc(Cl)cc2[C@@H]1c1csc(C(=O)c2cncnc2N[C@@H]2C[C@H](COS(N)(=O)=O)[C@@H](O)C2)c1` (single isomer, unassigned) [I-265a, [(1R,2S,4R)-4-{[5-({4-[(1R)-6-chloro-2-methyl-2,3-dihydro-1H-isoindol-1-yl]-2-thienyl}carbonyl)pyrimidin-4-yl]amino}-2-hydroxycyclopentyl]methyl sulfamate or [(1R,2S,4R)-4-{[5-({4-[(1S)-6-chloro-2-methyl-2,3-dihydro-1H-isoindol-1-yl]-2-thienyl}carbonyl)pyrimidin-4-yl]amino}-2-hydroxycyclopentyl]methyl sulfamate], the “Percent Inhibition” value (Concentration 0.111 μM) was 99 and the pIC50 was > 8.00.
In the case of `C[C@@]1(c2csc(C(=O)c3cncnc3N[C@@H]3C[C@H](COS(N)(=O)=O)[C@@H](O)C3)c2)NCCc2ccccc21.C[C@]1(c2csc(C(=O)c3cncnc3N[C@@H]3C[C@H](COS(N)(=O)=O)[C@@H](O)C3)c2)NCCc2ccccc21` (mixture of isomers) [I-318, [(1R,2S,4R)-2-hydroxy-4-{[5-({4-[(1R)-1-methyl-1,2,3,4-tetrahydroisoquinolin-1-yl]-2-thienyl}carbonyl)pyrimidin-4-yl]amino}cyclopentyl]methyl sulfamate and [(1R,2S,4R)-2-hydroxy-4-{[5-({4-[(1S)-1-methyl-1,2,3,4-tetrahydroisoquinolin-1-yl]-2-thienyl}carbonyl)pyrimidin-4-yl]amino}cyclopentyl]methyl sulfamate], the “Percent Inhibition” value [1] was 95% and the IC50 was < 10 nM.
`NS(=O)(=O)OC[C@H]1C[C@@H](Nc2ncncc2C(=O)c2cc(CCc3ccc(Cl)cc3)cs2)C[C@@H]1O` [I-178, [(1R,2S,4R)-4-{[5-({4-[2-(4-chlorophenyl)ethyl]-2-thienyl}carbonyl)pyrimidin-4-yl]amino}-2-hydroxycyclopentyl]methyl sulfamate] showed an inhibition at 0.111 µM (Concentration 0.111 μM) of 87% and a pIC50 of 7.00 to 8.00.
In the case of `NS(=O)(=O)OC[C@H]1C[C@@H](Nc2ncncc2C(=O)c2cc(Cc3cccc(Cl)c3)c([C@@H]3CCCO3)s2)C[C@@H]1O` (mixture of isomers) [I-41, [(1R,2S,4R)-4-{[5-({4-(3-chlorobenzyl)-5-[(2S)-tetrahydrofuran-2-yl]-2-thienyl}carbonyl)pyrimidin-4-yl]amino}-2-hydroxycyclopentyl]methyl sulfamate and [(1R,2S,4R)-4-{[5-({4-(3-chlorobenzyl)-5-[(2R)-tetrahydrofuran-2-yl]-2-thienyl}carbonyl)pyrimidin-4-yl]amino}-2-hydroxycyclopentyl]methyl sulfamate], the “Percent Inhibition” value (Concentration 0.111 μM) was 99 and the pIC50 was > 8.00.
With `NS(=O)(=O)OC[C@H]1C[C@@H](Nc2ncncc2C(=O)c2cc([C@@H]3SCCc4ccc(Cl)cc43)cs2)C[C@@H]1O.NS(=O)(=O)OC[C@H]1C[C@@H](Nc2ncncc2C(=O)c2cc([C@H]3SCCc4ccc(Cl)cc43)cs2)C[C@@H]1O` (mixture of isomers) [I-320, [(1R,2S,4R)-4-{[5-({4-[(1R)-7-chloro-3,4-dihydro-1H-isothiochromen-1-yl]-2-thienyl}carbonyl)pyrimidin-4-yl]amino}-2-hydroxycyclopentyl]methyl sulfamate and [(1R,2S,4R)-4-{[5-({4-[(1S)-7-chloro-3,4-dihydro-1H-isothiochromen-1-yl]-2-thienyl}carbonyl)pyrimidin-4-yl]amino}-2-hydroxycyclopentyl]methyl sulfamate] the “Percent Inhibition” value [1] was 92% and the IC50 was 10 to 100 nM.
In the case of `NS(=O)(=O)OC[C@H]1C[C@@H](Nc2ncncc2C(=O)c2cc([C@@H]3NCCc4ccc(Cl)nc43)c(Cl)s2)C[C@@H]1O` (single isomer, unassigned) [I-253b, [(1R,2S,4R)-4-{[5-({5-chloro-4-[(8S)-2-chloro-5,6,7,8-tetrahydro-1,7-naphthyridin-8-yl]-2-thienyl}carbonyl)pyrimidin-4-yl]amino}-2-hydroxycyclopentyl]methyl sulfamate or [(1R,2S,4R)-4-{[5-({5-chloro-4-[(8R)-2-chloro-5,6,7,8-tetrahydro-1,7-naphthyridin-8-yl]-2-thienyl}carbonyl)pyrimidin-4-yl]amino}-2-hydroxycyclopentyl]methyl sulfamate], the “Percent Inhibition” value (Concentration 0.111 μM) was 83 and the pIC50 was 7.00 to 8.00.
In the case of `Cc1oc(C(=O)c2cncnc2N[C@@H]2C[C@H](COS(N)(=O)=O)[C@@H](O)[C@@H]2F)cc1Cc1cccc(Br)c1` [I-64, [(1R,2R,3R,4R)-4-({5-[4-(3-bromobenzyl)-5-methyl-2-furoyl]pyrimidin-4-yl}amino)-3-fluoro-2-hydroxycyclopentyl]methyl sulfamate], the inhibition at 0.111 µM (Concentration 0.111 μM) was 99% and the pIC50 was > 8.00.
With “[(1R,2S,4R)-2-hydroxy-4-{[5-({4-[(1R)-2-methyl-2,3-dihydro-1H-isoindol-1-yl]-2-thienyl}carbonyl)pyrimidin-4-yl]amino}cyclopentyl]methyl sulfamate and [(1R,2S,4R)-2-hydroxy-4-{[5-({4-[(1S)-2-methyl-2,3-dihydro-1H-isoindol-1-yl]-2-thienyl}carbonyl)pyrimidin-4-yl]amino}cyclopentyl]methyl sulfamate [I-308]” the “Percent Inhibition” value [1] was 98% and the IC50 was < 10 nM.
For `Cc1cccc(Cc2cc(C(=O)c3cncnc3N[C@@H]3C[C@H](COS(N)(=O)=O)[C@@H](O)[C@@H]3F)oc2C)c1` [I-65, [(1R,2R,3R,4R)-3-fluoro-2-hydroxy-4-({5-[5-methyl-4-(3-methylbenzyl)-2-furoyl]pyrimidin-4-yl}amino)cyclopentyl]methyl sulfamate], the inhibition at 0.111 µM (Concentration 0.111 μM) was 99% and the pIC50 was > 8.00.
`NS(=O)(=O)OC[C@H]1C[C@@H](Nc2ncncc2C(=O)c2ccc(S(=O)(=O)c3ccccc3)o2)C[C@@H]1O` [I-239, [(1R,2S,4R)-2-Hydroxy-4-(5-[5-(phenylsulfonyl)-2-furoyl]pyrimidin-4-yl}amino)cyclopentyl]methyl sulfamate] was tested, and the “Percent Inhibition” value (Concentration 0.111 μM) was 14 and the pIC50 was 6.00 to 7.00.
In the case of `Cc1sc(C(=O)c2cncnc2N[C@@H]2C[C@H](COS(N)(=O)=O)[C@@H](O)C2)cc1Cn1cc(Br)cc1C#N` [I-148, [(1R,2S,4R)-4-{[5-({4-[(4-bromo-2-cyano-1H-pyrrol-1-yl)methyl]-5-methyl-2-thienyl}carbonyl)pyrimidin-4-yl]amino}-2-hydroxycyclopentyl]methyl sulfamate], the inhibition at 0.111 µM (Concentration 0.111 μM) was 91% and the pIC50 was > 8.00.
In the case of `NS(=O)(=O)OC[C@H]1C[C@@H](Nc2ncncc2C(=O)c2cc(Cc3cccc(Cl)c3)c(Br)s2)C[C@@H]1O` [I-118, {(1R,2S,4R)-4-[(5-{[5-bromo-4-(3-chlorobenzyl)-2-thienyl]carbonyl}pyrimidin-4-yl)amino]-2-hydroxycyclopentyl}methyl sulfamate], the inhibition at 0.111 µM (Concentration 0.111 μM) was 97% and the pIC50 was > 8.00.
